This experiment deals with cells of rat pituitary glands. Kind of experiment: in vitro growth hormone release assay in rat pituitary cell monolayer cultures (ir GH by radioimmunoassay). It counts as cell-based. Particulars: equimolar concentrations, side-by-side with synthetic hGRF(1-44)-NH2; incubation 3 to 4 hours; ir GH in culture medium. As for the experimental part:
To determine the effectiveness of the peptide to promote the release of growth hormone, in vitro assays are carried out using synthetic hGRF(1-44)-NH2 in side-by-side comparison with equimolar concentrations of the extracted and purified pGRF(1-44) of Example II and of a GRF Reference Standard having a known effectiveness to promote the release of growth hormone from pituitary cells. The GRF Reference standard is described and defined in Brazeau, et al., Endocrinology, Vol. 110, A538(1982) and is an amount of a preparation of rat hypothalamic origin that produces a half-maximal response in terms of GH release in a pituitary cell monolayer bioassay. Cultures are used which include cells of rat pituitary glands removed some four to five days previously. Both cultures of a defined standard medium and cultures which are considered optimal for the secretion of growth hormone are used for the comparative testing, in the general manner described in Brazeau, et al. Regulatory Peptides, 1, 255, 1981. Incubation with the substance to be tested is carried out for 3 to 4 hours, and aliquots of the culture medium are removed and processed to measure their contents in inmunoreactive GH(ir GH) by a well-characterized radioimmunoassay.

Turning to “Tyr-Ala-Asp-Ala-Ile-Phe-Thr-Asn-Ser-Tyr-Arg-Lys-Val-Leu-Gly-Gln-Leu-Ser-Ala-Arg-Lys-Leu-Leu-Gln-Asp-Ile-Met-Ser-Arg-Gln-Gln-Gly-Glu-Arg-Asn-Gln-Glu-Gln-Gly-Ala-Arg-Val-Arg-Leu (YADAIFTNSYRKVLGQLSARKLLQDIMSRQQGERNQEQGARVRL; printed: Tyr-Ala-Asp-Ala-Ile-Phe-Thr-Asn-Ser-Tyr-Arg-Lys-Val-Leu-Gly-Gln-Leu-Ser-Ala-Arg-Lys-Leu-Leu-Gln-Asp-Ile-Met-Ser-Arg-Gln-Gln-Gly-Glu-Arg-Asn-Gln-Glu-Gln-Gly-Ala-Arg-Val-Arg-Leu) [pGRF(1-44), 44-residue polypeptide isolated from purified extracts of porcine hypothalami]”, the “intrinsic biological activity to promote the release of growth hormone, compared with synthetic hGRF(1-44)-NH2” value is “full intrinsic biological activity of the synthetic peptide” and the “potency to promote the release of growth hormone, compared with synthetic hGRF(1-44)-NH2” value was “close to the same potency”.

Source of the values: patent publication US4610976A, “Porcine GRF” (The Salk Institute for Biological Studies, priority 1983, dated 1986).
